Experiments:
Experiment in all cases: Test B pre-/postemergence plant response
Format in all cases: in vivo
wild oat (Avena fatua) = conditions: for Oat, Wild plant response rating (0 to 100 scale): 62 g ai/ha, 0 is no effect, 13 to 15 days
Outline: (§1)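 Seeds were sown in loam soil/sand blend and treated preemergence with compound in non-phytotoxic solvent mixture containing surfactant; postemergence sprays, same formulation, went onto plants 2 to 18 cm (1- to 4-leaf stage) in peat-based planting medium. Greenhouse 13 to 15 days, then visual rating versus untreated controls, 0 (no effect) to 100 (complete control).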

[1] = test system: giant foxtail (Setaria faberii); conditions: for Foxtail, Giant plant response rating (0 to 100 scale): 62 g ai/ha, 0 is no effect, 13 to 15 days
Outline: as §1

[2] = test system: large crabgrass (Digitaria sanguinalis); conditions: for Crabgrass, Large plant response rating (0 to 100 scale): 62 g ai/ha, 0 is no effect, 13 to 15 days
Outline: as §1

[3] = test system: velvetleaf (Abutilon theophrasti); conditions: for Velvetleaf plant response rating (0 to 100 scale): 62 g ai/ha, postemergence, 0 is no effect, 100 is complete control, 13 to 15 days; for Plant response rating, Velvetleaf: Postemergence, scale 0 to 100 (0 no effect, 100 complete control)
Outline: as §1

[4] = test system: johnsongrass (Sorghum halepense); conditions: for Johnsongrass plant response rating (0 to 100 scale): 62 g ai/ha, 0 is no effect, 13 to 15 days
Outline: as §1

[5] = test system: cocklebur (Xanthium strumarium); conditions: for Cocklebur plant response rating (0 to 100 scale): 62 g ai/ha, 0 is no effect, 13 to 15 days
Outline: as §1

soybean (Glycine max) = conditions: for Soybean plant response rating (0 to 100 scale): 62 g ai/ha, postemergence, 0 is no effect, 100 is complete control, 13 to 15 days; for Plant response rating, Soybean: Postemergence, scale 0 to 100 (0 no effect, 100 complete control)
Outline: as §1

kochia (Kochia scoparia) = conditions: for Kochia plant response rating (0 to 100 scale): 62 g ai/ha, 0 is no effect, 13 to 15 days
Outline: as §1

[6] = test system: goosegrass (Eleusine indica); conditions: for Goosegrass plant response rating (0 to 100 scale): 62 g ai/ha, 0 is no effect, 13 to 15 days
Outline: as §1

[7] = test system: yellow nutsedge (Cyperus esculentus); conditions: for Nutsedge, Yellow plant response rating (0 to 100 scale): 62 g ai/ha, 0 is no effect, 13 to 15 days
Outline: as §1

[8] = test system: Surinam grass (Brachiaria decumbens); conditions: for Plant response rating, Surinam Grass: Postemergence, scale 0 to 100 (0 no effect, 100 complete control)
Outline: as §1

[9] = test system: downy bromegrass (Bromus tectorum); conditions: for Bromegrass, Downy plant response rating (0 to 100 scale): 62 g ai/ha, 0 is no effect, 13 to 15 days
Outline: as §1

[10] = test system: morningglory (Ipomoea coccinea); conditions: for Morningglory plant response rating (0 to 100 scale): 62 g ai/ha, 0 is no effect, 13 to 15 days
Outline: as §1

[11] = test system: woolly cupgrass (Eriochloa villosa); conditions: for Cupgrass, Woolly plant response rating (0 to 100 scale): 62 g ai/ha, 0 is no effect, 13 to 15 days
Outline: as §1

corn (Zea mays) = conditions: for Corn plant response rating (0 to 100 scale): 62 g ai/ha, 0 is no effect, 13 to 15 days
Outline: as §1

[12] = test system: blackgrass (Alopecurus myosuroides); conditions: for Blackgrass plant response rating (0 to 100 scale): 62 g ai/ha, 0 is no effect, 13 to 15 days
Outline: as §1

[13] = test system: green foxtail (Setaria viridis); conditions: for Foxtail, Green plant response rating (0 to 100 scale): 62 g ai/ha, 0 is no effect, 13 to 15 days
Outline: as §1

[14] = 31 g ai/ha, postemergence, scale 0 to 100, 0 is no effect, 100 is complete control
[15] = postemergence, 100 is complete control
[16] = Postemergence, 125 g ai/ha, scale 0 to 100 (0 no effect, 100 complete control)
[17] = Postemergence, 250 g ai/ha, scale 0 to 100 (0 no effect, 100 complete control)

## O=C1CCCC(O)=C1C(=O)c1cnc(-c2cccs2)n(CC2CCCO2)c1=O (stereo not shown) [Compound 109]
Wild oat (Avena fatua); [14]
  Plant response rating, Oat, Wild: 0
Wild oat (Avena fatua); [15]
  Oat, Wild plant response rating (0 to 100 scale): 0
Wild oat (Avena fatua); [16]
  Plant response rating, Oat, Wild: 30
Wild oat (Avena fatua); [17]
  Plant response rating, Oat, Wild: 40
[1]; [14]
  Plant response rating, Foxtail, Giant: 70
[1]; [15]
  Foxtail, Giant plant response rating (0 to 100 scale): 75
[1]; [16]
  Plant response rating, Foxtail, Giant: 80
[1]; [17]
  Plant response rating, Foxtail, Giant: 90
[2]; [14]
  Plant response rating, Crabgrass, Large: 65
[2]; [15]
  Crabgrass, Large plant response rating (0 to 100 scale): 75
[2]; [16]
  Plant response rating, Crabgrass, Large: 75
[2]; [17]
  Plant response rating, Crabgrass, Large: 85
[3]
  Velvetleaf plant response rating (0 to 100 scale): 98
[3]; 125 g ai/ha
  Plant response rating, Velvetleaf: 100
[3]; 250 g ai/ha
  Plant response rating, Velvetleaf: 100
[4]; [14]
  Plant response rating, Johnsongrass: 5
[4]; [15]
  Johnsongrass plant response rating (0 to 100 scale): 30
[4]; [16]
  Plant response rating, Johnsongrass: 50
[4]; [17]
  Plant response rating, Johnsongrass: 75
[5]; [14]
  Plant response rating, Cocklebur: 75
[5]; [15]
  Cocklebur plant response rating (0 to 100 scale): 98
[5]; [16]
  Plant response rating, Cocklebur: 100
[5]; [17]
  Plant response rating, Cocklebur: 100
Soybean (Glycine max)
  Soybean plant response rating (0 to 100 scale): 95
Soybean (Glycine max); 125 g ai/ha
  Plant response rating, Soybean: 98
Soybean (Glycine max); 250 g ai/ha
  Plant response rating, Soybean: 100
Kochia (Kochia scoparia); [14]
  Plant response rating, Kochia: 70
Kochia (Kochia scoparia); [15]
  Kochia plant response rating (0 to 100 scale): 75
Kochia (Kochia scoparia); [16]
  Plant response rating, Kochia: 85
Kochia (Kochia scoparia); [17]
  Plant response rating, Kochia: 98
[6]; [14]
  Plant response rating, Goosegrass: 65
[6]; [15]
  Goosegrass plant response rating (0 to 100 scale): 75
[6]; [16]
  Plant response rating, Goosegrass: 80
[6]; [17]
  Plant response rating, Goosegrass: 85
[7]; [15]
  Nutsedge, Yellow plant response rating (0 to 100 scale): 65
[7]; [16]
  Plant response rating, Nutsedge, Yellow: 75
[7]; [17]
  Plant response rating, Nutsedge, Yellow: 80
[8]; 62 g ai/ha, postemergence, 0 is no effect, 100 is complete control, 13 to 15 days
  Surinam Grass plant response rating (0 to 100 scale): 65
[8]; 125 g ai/ha
  Plant response rating, Surinam Grass: 65
[8]; 250 g ai/ha
  Plant response rating, Surinam Grass: 80
[9]; [14]
  Plant response rating, Bromegrass, Downy: 0
[9]; [15]
  Bromegrass, Downy plant response rating (0 to 100 scale): 0
[9]; [16]
  Plant response rating, Bromegrass, Downy: 5
[9]; [17]
  Plant response rating, Bromegrass, Downy: 5
[10]; [14]
  Plant response rating, Morningglory: 70
[10]; [15]
  Morningglory plant response rating (0 to 100 scale): 98
[10]; [16]
  Plant response rating, Morningglory: 100
[10]; [17]
  Plant response rating, Morningglory: 100
[11]; [15]
  Cupgrass, Woolly plant response rating (0 to 100 scale): 60
[11]; [16]
  Plant response rating, Cupgrass, Woolly: 60
[11]; [17]
  Plant response rating, Cupgrass, Woolly: 75
Corn (Zea mays); [14]
  Plant response rating, Corn: 0
Corn (Zea mays); [15]
  Corn plant response rating (0 to 100 scale): 15
Corn (Zea mays); [16]
  Plant response rating, Corn: 60
Corn (Zea mays); [17]
  Plant response rating, Corn: 60
[12]; [14]
  Plant response rating, Blackgrass: 0
[12]; [15]
  Blackgrass plant response rating (0 to 100 scale): 5
[12]; [16]
  Plant response rating, Blackgrass: 40
[12]; [17]
  Plant response rating, Blackgrass: 50
[13]; [14]
  Plant response rating, Foxtail, Green: 20
[13]; [15]
  Foxtail, Green plant response rating (0 to 100 scale): 80
[13]; [16]
  Plant response rating, Foxtail, Green: 85
[13]; [17]
  Plant response rating, Foxtail, Green: 98

## COCCn1c(-c2ccco2)ncc(C(=O)C2=C(O)CCCC2=O)c1=O [Compound 111]
Wild oat (Avena fatua); [14]
  Plant response rating, Oat, Wild: 0
Wild oat (Avena fatua); [15]
  Oat, Wild plant response rating (0 to 100 scale): 0
Wild oat (Avena fatua); [16]
  Plant response rating, Oat, Wild: 0
Wild oat (Avena fatua); [17]
  Plant response rating, Oat, Wild: 10
[1]; [14]
  Plant response rating, Foxtail, Giant: 60
[1]; [15]
  Foxtail, Giant plant response rating (0 to 100 scale): 65
[1]; [16]
  Plant response rating, Foxtail, Giant: 65
[1]; [17]
  Plant response rating, Foxtail, Giant: 70
[2]; [14]
  Plant response rating, Crabgrass, Large: 70
[2]; [15]
  Crabgrass, Large plant response rating (0 to 100 scale): 75
[2]; [16]
  Plant response rating, Crabgrass, Large: 80
[2]; [17]
  Plant response rating, Crabgrass, Large: 85
[3]
  Velvetleaf plant response rating (0 to 100 scale): 98
[3]; 125 g ai/ha
  Plant response rating, Velvetleaf: 100
[3]; 250 g ai/ha
  Plant response rating, Velvetleaf: 100
[4]; [14]
  Plant response rating, Johnsongrass: 10
[4]; [15]
  Johnsongrass plant response rating (0 to 100 scale): 15
[4]; [16]
  Plant response rating, Johnsongrass: 20
[4]; [17]
  Plant response rating, Johnsongrass: 40
[5]; [14]
  Plant response rating, Cocklebur: 98
[5]; [15]
  Cocklebur plant response rating (0 to 100 scale): 98
[5]; [16]
  Plant response rating, Cocklebur: 100
[5]; [17]
  Plant response rating, Cocklebur: 100
Soybean (Glycine max)
  Soybean plant response rating (0 to 100 scale): 80
Soybean (Glycine max); 125 g ai/ha
  Plant response rating, Soybean: 95
Soybean (Glycine max); 250 g ai/ha
  Plant response rating, Soybean: 98
Kochia (Kochia scoparia); [14]
  Plant response rating, Kochia: 80
Kochia (Kochia scoparia); [15]
  Kochia plant response rating (0 to 100 scale): 100
Kochia (Kochia scoparia); [16]
  Plant response rating, Kochia: 100
Kochia (Kochia scoparia); [17]
  Plant response rating, Kochia: 100
[6]; [14]
  Plant response rating, Goosegrass: 70
[6]; [15]
  Goosegrass plant response rating (0 to 100 scale): 70
[6]; [16]
  Plant response rating, Goosegrass: 85
[6]; [17]
  Plant response rating, Goosegrass: 85
[7]; [14]
  Plant response rating, Nutsedge, Yellow: 65
[7]; [15]
  Nutsedge, Yellow plant response rating (0 to 100 scale): 75
[7]; [16]
  Plant response rating, Nutsedge, Yellow: 80
[7]; [17]
  Plant response rating, Nutsedge, Yellow: 85
[8]; 125 g ai/ha
  Plant response rating, Surinam Grass: 70
[8]; 250 g ai/ha
  Plant response rating, Surinam Grass: 80
[9]; [14]
  Plant response rating, Bromegrass, Downy: 0
[9]; [15]
  Bromegrass, Downy plant response rating (0 to 100 scale): 0
[9]; [16]
  Plant response rating, Bromegrass, Downy: 5
[9]; [17]
  Plant response rating, Bromegrass, Downy: 10
[10]; [14]
  Plant response rating, Morningglory: 100
[10]; [15]
  Morningglory plant response rating (0 to 100 scale): 100
[10]; [16]
  Plant response rating, Morningglory: 100
[10]; [17]
  Plant response rating, Morningglory: 100
[11]; [14]
  Plant response rating, Cupgrass, Woolly: 40
[11]; [15]
  Cupgrass, Woolly plant response rating (0 to 100 scale): 50
[11]; [16]
  Plant response rating, Cupgrass, Woolly: 75
[11]; [17]
  Plant response rating, Cupgrass, Woolly: 75
Corn (Zea mays); [14]
  Plant response rating, Corn: 10
Corn (Zea mays); [15]
  Corn plant response rating (0 to 100 scale): 45
Corn (Zea mays); [16]
  Plant response rating, Corn: 55
Corn (Zea mays); [17]
  Plant response rating, Corn: 60
[12]; [14]
  Plant response rating, Blackgrass: 5
[12]; [15]
  Blackgrass plant response rating (0 to 100 scale): 5
[12]; [16]
  Plant response rating, Blackgrass: 25
[12]; [17]
  Plant response rating, Blackgrass: 40
[13]; [14]
  Plant response rating, Foxtail, Green: 40
[13]; [15]
  Foxtail, Green plant response rating (0 to 100 scale): 60
[13]; [16]
  Plant response rating, Foxtail, Green: 65
[13]; [17]
  Plant response rating, Foxtail, Green: 70
